Measured values published in patent publication US12624004B2 (Fudan University, priority 2019, dated 2026).
Like-named read-outs stand apart in the source and are kept apart here.

Molecular target: T1, δ opioid receptor (Homo sapiens, UniProt P41143)
T1 construct: expressed in transfected cells; host or cells: CHO cells (membranes)
Experiment: Competition binding assay on membranes of CHO cells expressing δ opioid receptor, [3H]-labeled ligand
Outline: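 CHO membranes (20–30 μg protein) incubated with [3H]-labeled ligand at 1–2 nM and test compounds, 30 min at 30° C; nonspecific binding with 1 μM corresponding ligand. Filtered on GF/C, washed with 50 mM Tris-HCl pH 7.4, scintillation-counted. IC50 converted to Ki by Ki=IC50/(1+[L]/Kd).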

T1 sequence (P41143 whole entry): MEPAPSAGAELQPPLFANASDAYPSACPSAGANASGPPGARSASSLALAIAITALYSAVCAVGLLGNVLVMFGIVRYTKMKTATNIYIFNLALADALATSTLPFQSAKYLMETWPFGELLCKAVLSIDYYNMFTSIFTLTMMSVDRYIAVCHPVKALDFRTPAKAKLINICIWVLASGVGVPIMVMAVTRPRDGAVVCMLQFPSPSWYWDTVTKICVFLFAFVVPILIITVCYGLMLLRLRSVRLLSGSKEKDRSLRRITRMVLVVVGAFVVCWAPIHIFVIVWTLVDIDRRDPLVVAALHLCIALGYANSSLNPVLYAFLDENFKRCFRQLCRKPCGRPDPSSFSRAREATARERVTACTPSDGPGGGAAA

COc1cccc(C2(O)CCCCC2CN(C)C)c1 (centres unmarked) [Tramadol, reference compound]
0%: inhibition at 10 µM (0.5 h, Table 1-1, 10 μM concentration of compound, read-out: δOR Binding rate (%)) | inhibition at 1 µM (0.5 h, Table 2-1, 1 μM concentration of compound, read-out: δOR Binding rate (%)) | inhibition at 1 µM (0.5 h, Table 5-1, 1 μM concentration of compound, read-out: δOR Combination rate (%)) | δOR Binding rate (%) (Table 3-1, 1 μM concentration of compounds) | δOR Binding rate (%) (Table 4-1, 1 μM concentration of compound)
